We go through 3 molecules from patent US5312838A, “β-alanineamide aryl/alkylsulfide/sulfonyl-terminated amino-diol compounds for treatment of hypertension” (G. D. Searle & Co., priority 1992, dated 1994).

Where a SMILES comes first, the peptide text is derived from it. [ ]: non-standard residue; d: D form. The star is where a group is joined. Sta = CC(C)C[C@H](N)[C@@H](O)CC(=O)O; Isovaleryl = CC(C)CC(=O)*

One experiment deals with T1, human renin (Homo sapiens, UniProt P00797).
T1 construct: purchased National Institute for Biological Standards, London
T1 sequence (P00797 67-406): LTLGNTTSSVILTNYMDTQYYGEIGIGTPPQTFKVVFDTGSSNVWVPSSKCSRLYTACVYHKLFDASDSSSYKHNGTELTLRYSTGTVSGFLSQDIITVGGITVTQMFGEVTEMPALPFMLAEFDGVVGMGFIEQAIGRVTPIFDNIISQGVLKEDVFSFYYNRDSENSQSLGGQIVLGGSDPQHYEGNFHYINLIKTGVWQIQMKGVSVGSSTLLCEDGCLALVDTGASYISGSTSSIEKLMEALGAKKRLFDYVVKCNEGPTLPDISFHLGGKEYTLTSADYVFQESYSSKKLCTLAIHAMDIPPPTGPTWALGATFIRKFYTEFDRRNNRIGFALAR
Put plainly: Human Renin Inhibition in vitro (angiotensin I by radioimmunoassay). The class given is biochemical. As to conditions: pH 7.4, 37° C., two hours, human plasma. On the procedure:
Compounds of Formula I were evaluated as inhibitors of human renin in an in vitro assay, as follows: This human renin inhibition test has been previously described in detail [Papaioannou et al., Clinical and Experimental Hypertension, A7(9), 1243-1257 (1985)]. Human renin was obtained from the National Institute for Biological Standards, London. An incubation mixture was prepared containing the following components: in a total volume of 0.25 mL: 100 mM Tris-acetate buffer at pH 7.4, 25×10^-6 Goldblatt units of renin, 0.05 mL of plasma from human volunteers taking oral contraceptives, 6.0 mM Na-EDTA, 2.4 mM phenylmethyl sulfonyl fluoride, 1.5 mM 8-hydroxyquinoline, 0.4 mg/mL bovine serum albumin (BSA), and 0.024 mg/mL neomycin sulfate. This mixture was incubated for two hours at 37° C. in the presence or absence of renin inhibitors. The produced angiotensin I was determined by radioimmunoassay (New England Nuclear kit). Test compounds to be assayed were dissolved in DMSO and diluted with 100 mM Tris-acetate buffer at pH 7.4 containing 0.5% BSA to the appropriate concentration. The final concentration of organic solvent in the reaction mixture was less than 1%. Control incubations at 37° C. were used to correct for effects of organic solvent on renin activity.

A further experiment deals with pepsin. The following applies: Umezawa et al, J. Antibiot. 1970; cited from earlier work.
A further experiment deals with cathepsin D. The following applies: Umezawa et al, J. Antibiot. 1970; cited from earlier work.
In a further experiment the test system is renin. As to conditions: Umezawa et al, J. Antibiot. 1970; cited from earlier work.
The test system of a further experiment is hog renin. As to conditions: after injection of hog renin into nephrectomized rats; Gross et al, Science 1971; cited from earlier work.

Regarding `CC(C)C[C@H](O)[C@H](O)[C@H](CC1CCCCC1)NC(=O)C(C)CNC(=O)C(CSC(C)(C)C)Cc1ccccc1` (stereo partly drawn) [Example 2, N-[3-[[1S,1R*-(cyclohexylmethyl)-2S*,3R*-dihydroxy-5-methylhexyl]amino]-2S*-methyl-2-3-oxopropyl]-α-[[(1,1-dimethylethyl)thio]methyl]benzenepropanamide], the inhibition (commonly the change of the read-out against control, counted positive when it falls) at 0.01 µM against human renin (@ 10 nM) was 30%.

As to `CC(C)CC(=O)N[C@H](C(=O)N[C@H](C(=O)N[C@@H](CC(C)C)[C@@H](O)CC(=O)N[C@@H](C)C(=O)N[C@@H](CC(C)C)[C@@H](O)CC(=O)O)C(C)C)C(C)C` [pepstatin] (Isovaleryl-VV[Sta]A[Sta]-OH), in the experiment with pepsin, the inhibitor of pepsin result was “inhibitor”. Besides, in the experiment on cathepsin D, the “inhibitor of cathepsin D” value is on record as “inhibitor”. In addition, the inhibitor of renin result in the experiment with renin is listed as “inhibitor”. Also, the “blood pressure in vivo” value with hog renin was “reduce blood pressure”.

Turning to `CC(C)C[C@H](O)[C@H](O)[C@H](CC1CCCCC1)NC(=O)C(C)CNC(=O)C(Cc1ccccc1)CS(=O)(=O)C(C)(C)C` (stereo partly drawn) [Example 1, N-[3-[[1S,1R*-(cyclohexylmethyl)-2S*,3R*-5-methylhexyl]amino]-2S*-methyl-3-oxopropyl]-α-[[(1,1-dimethylethyl)sulfonyl]methyl]benzenepropanamide], on human renin, the 50% inhibitory concentration (IC50) – broadly, the concentration that inhibits the measured activity by half – was found to be 10 nM.
